Source: ChEMBL document CHEMBL1201862, “PubChem BioAssay data set” (2004)
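Growth conditions: 96-well plates. Treatment: test compound, 48 hours, 5 concentrations. Analysis: linear interpolation between bracketing concentrations; unreached endpoints set to highest concentration. At the GI50, growth is halved.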 Calls of active or inactive are those of the source. Rule as the data show it: active = GI50 up to about 1.1 µM and inactive = higher.

Columns and labels:
Assay in all cases: inhibition of tumour cell growth, NCI panel, 48 h
SK-MEL-5 = test system: SK-MEL-5
SK-OV-3 = test system: SK-OV-3
A549 = test system: A549
A498 = test system: A498
SF-268 = test system: SF-268
CAKI-1 = test system: CAKI-1
Malme-3M = test system: Malme-3M
NCI-H226 = test system: NCI-H226
IGROV-1 = test system: IGROV-1
UACC-257 = test system: UACC-257
HOP-62 = test system: HOP-62
HCC 2998 = test system: HCC 2998
NCI-H23 = test system: NCI-H23
RPMI-8226 = test system: RPMI-8226
NCI/ADR-RES = test system: NCI/ADR-RES
MCF7 = test system: MCF7
Hs-578T = test system: Hs-578T
PC-3 = test system: PC-3

Row | SMILES | GI50 (SK-MEL-5) | GI50 (SK-OV-3) | GI50 (A549) | GI50 (A498) | GI50 (SF-268) | GI50 (CAKI-1) | GI50 (Malme-3M) | GI50 (NCI-H226) | GI50 (IGROV-1) | GI50 (UACC-257) | GI50 (HOP-62) | GI50 (HCC 2998) | GI50 (NCI-H23) | GI50 (RPMI-8226) | GI50 (NCI/ADR-RES) | GI50 (MCF7) | GI50 (Hs-578T) | GI50 (PC-3)
1 | [O-][S+]1CSSC1 | > 10 µM (inactive) | 24.3 µM (inactive) | 33.9 µM (inactive) | 43.8 µM (inactive) | 26.2 µM (inactive) | 28.1 µM (inactive) | 36.7 µM (inactive) | 26.3 µM (inactive) | 22 µM (inactive) | 14.8 µM (inactive) | 36.3 µM (inactive) | 23.2 µM (inactive) | 28.7 µM (inactive) |  |  |  |  | 
2 | CC1=C(/C=C/C2=CC(=C\C(=O)O)/CC(C3=C(C)CCCC3(C)C)C2)C(C)(C)CCC1 (configuration not stated) | 14.8 µM (inactive) | 13.7 µM (inactive) | 4.8 µM (inactive) | 15.2 µM (inactive) | 20.9 µM (inactive) | 15.9 µM (inactive) | 18.7 µM (inactive) | 11.2 µM (inactive) | 13.2 µM (inactive) | 15.6 µM (inactive) | 14 µM (inactive) |  | 13.9 µM (inactive) | 5.36 µM (inactive) |  |  |  | 
3 | COc1cc(C2C(Cl)C(=O)N2n2cnc3ccccc3c2=O)ccc1O (configuration not stated) | > 100 µM (inactive) | 68.9 µM (inactive) | > 100 µM (inactive) |  | 76.4 µM (inactive) | 70.6 µM (inactive) | > 100 µM (inactive) | > 100 µM (inactive) | 78.2 µM (inactive) | 25.4 µM (inactive) | > 100 µM (inactive) | > 100 µM (inactive) | 39.1 µM (inactive) | 60 µM (inactive) |  |  |  | 
4 | COc1cc(/C=N/N=C(\N)NO)c(Cl)cc1O | 51.5 µM (inactive) | 85.9 µM (inactive) | 38 µM (inactive) | 99.8 µM (inactive) | 85.1 µM (inactive) | 78 µM (inactive) | 68.7 µM (inactive) | 81.5 µM (inactive) | > 100 µM (inactive) | > 100 µM (inactive) |  | 61.5 µM (inactive) | 35.5 µM (inactive) | > 100 µM (inactive) |  |  |  | 
5 | O=C(/C=C/c1ccc(Cl)c(Cl)c1)c1ccccc1Cl | 13.7 µM (inactive) | 24.4 µM (inactive) | 15.8 µM (inactive) | 17 µM (inactive) | 6.64 µM (inactive) | 9.89 µM (inactive) | 16.6 µM (inactive) | 16.6 µM (inactive) | 9.84 µM (inactive) | 14.3 µM (inactive) | 18.7 µM (inactive) | 10.5 µM (inactive) | 13.4 µM (inactive) | 8.49 µM (inactive) |  |  |  | 
6 | O=C1NC(=S)NC(=O)C1=Cc1ccc([N+](=O)[O-])o1 | 23.4 µM (inactive) | > 100 µM (inactive) | > 100 µM (inactive) | > 100 µM (inactive) | 39.8 µM (inactive) | 19.5 µM (inactive) | 14.7 µM (inactive) | > 100 µM (inactive) | 21.6 µM (inactive) | 44.2 µM (inactive) | > 100 µM (inactive) | 60.7 µM (inactive) | 16.9 µM (inactive) | 20.3 µM (inactive) |  |  |  | 
7 | CC1=CC(=O)/C(=C(/C)NCCN(CCN/C(C)=C2\C(=O)C=C(C)OC2=O)CCN/C(C)=C2\C(=O)C=C(C)OC2=O)C(=O)O1 | > 100 µM (inactive) | > 100 µM (inactive) | > 100 µM (inactive) |  | > 100 µM (inactive) |  |  |  | > 100 µM (inactive) | > 100 µM (inactive) | > 100 µM (inactive) | > 100 µM (inactive) |  | > 100 µM (inactive) | > 100 µM (inactive) | > 100 µM (inactive) | > 100 µM (inactive) | > 100 µM (inactive)
8 | COc1ccc(-c2oc3c(OC)c(OC)c(OC)c(O)c3c(=O)c2OC)cc1O | 0.113 µM (active) | 0.139 µM (active) | 0.36 µM (active) | 1.6 µM (inactive) | 0.0859 µM (active) | 0.557 µM (active) | 0.065 µM (active) | 0.0612 µM (active) | 0.462 µM (active) | 0.0583 µM (active) | 0.403 µM (active) | 2.11 µM (inactive) | 0.254 µM (active) | 0.121 µM (active) |  |  |  | 
9 | C/C(=C\Cc1cc(O)ccc1O)CCc1c(C)cc(O)c(C=O)c1C [PANICEIN B3] | 17.4 µM (inactive) | 32.7 µM (inactive) | 27.4 µM (inactive) | 40.3 µM (inactive) | 15.8 µM (inactive) | 22.4 µM (inactive) | 21.3 µM (inactive) | 22.5 µM (inactive) | 23.2 µM (inactive) |  |  | 43.2 µM (inactive) | 22.5 µM (inactive) | > 100 µM (inactive) |  |  |  | 
10 | Oc1ccncc1-c1cnccc1O | > 100 µM (inactive) | > 100 µM (inactive) | > 100 µM (inactive) | > 100 µM (inactive) |  | > 100 µM (inactive) | > 100 µM (inactive) | > 100 µM (inactive) | > 100 µM (inactive) | > 100 µM (inactive) |  | > 100 µM (inactive) | > 100 µM (inactive) | > 100 µM (inactive) |  |  |  | 
11 | O=C1CC(c2ccccc2)=Nc2ccccc2N1 | > 100 µM (inactive) | > 100 µM (inactive) | > 100 µM (inactive) | 24.7 µM (inactive) | > 100 µM (inactive) | > 100 µM (inactive) | > 100 µM (inactive) | > 100 µM (inactive) | > 100 µM (inactive) | > 100 µM (inactive) | > 100 µM (inactive) | > 100 µM (inactive) | > 100 µM (inactive) |  |  |  |  | 
12 | COc1cc2c3cc1Oc1c(OC)c(OC)cc4c1[C@@H](Cc1ccc(O)c(c1)Oc1ccc(cc1)C[C@@H]3N(C)CC2)N(C)CC4.c1ccccc1 | 3.89 µM (inactive) |  | 22.5 µM (inactive) | 20.3 µM (inactive) | 23.2 µM (inactive) | 1.79 µM (inactive) | 17.2 µM (inactive) | 22.2 µM (inactive) | 20 µM (inactive) | 3.36 µM (inactive) | 18.1 µM (inactive) | 7.93 µM (inactive) | 24.1 µM (inactive) | 16.3 µM (inactive) |  |  |  | 
13 | Cc1ccc(S(=O)(=O)N(/N=C(\N)Oc2ccc(Cl)cc2)C(=N)Oc2ccc(Cl)cc2)cc1 | > 100 µM (inactive) | > 100 µM (inactive) | > 100 µM (inactive) | > 100 µM (inactive) | > 100 µM (inactive) | > 100 µM (inactive) | > 100 µM (inactive) | > 100 µM (inactive) | > 100 µM (inactive) | > 100 µM (inactive) | > 100 µM (inactive) | > 100 µM (inactive) | > 100 µM (inactive) |  |  |  |  | 
14 | CC1(C)CC(N2CCN(C3CC(C)(C)NC(C)(C)C3)CC2)CC(C)(C)N1 | > 100 µM (inactive) | > 100 µM (inactive) | > 100 µM (inactive) | > 100 µM (inactive) | > 100 µM (inactive) | > 100 µM (inactive) |  |  | > 100 µM (inactive) | > 100 µM (inactive) | > 100 µM (inactive) | > 100 µM (inactive) | > 100 µM (inactive) | > 100 µM (inactive) |  |  |  | 
15 | C=C(COC(C)=O)CC(OC(C)=O)c1ccccc1 (configuration not stated) | > 100 µM (inactive) | > 100 µM (inactive) | > 100 µM (inactive) | > 100 µM (inactive) | > 100 µM (inactive) |  |  | > 100 µM (inactive) | > 100 µM (inactive) |  | > 100 µM (inactive) | > 100 µM (inactive) | > 100 µM (inactive) | > 100 µM (inactive) |  |  |  | 
16 | O=C1CC(CC(=O)C2CCCCC2=O)C(=O)N1 (configuration not stated) |  | > 100 µM (inactive) | > 100 µM (inactive) | > 100 µM (inactive) | > 100 µM (inactive) | > 100 µM (inactive) | > 100 µM (inactive) | > 100 µM (inactive) | > 100 µM (inactive) | > 100 µM (inactive) | > 100 µM (inactive) | > 100 µM (inactive) | > 100 µM (inactive) | > 100 µM (inactive) |  |  |  | 
17 | C#CCN(Cc1ccc2nc(-c3ccccc3)c(N)nc2c1)c1cc(OC)c(OC)c(OC)c1 | 11.9 µM (inactive) |  | 23.2 µM (inactive) |  | 40.7 µM (inactive) |  | 26.9 µM (inactive) | 16.7 µM (inactive) | 37.1 µM (inactive) |  | 39.2 µM (inactive) | 57.4 µM (inactive) | 25.1 µM (inactive) | 11.2 µM (inactive) |  |  |  | 
18 | CCOC(=O)/C(=C/c1cc(OC)ccc1OC)CC(=O)O | > 100 µM (inactive) | > 100 µM (inactive) | > 100 µM (inactive) | > 100 µM (inactive) | > 100 µM (inactive) | > 100 µM (inactive) | > 31.6 µM (inactive) |  | > 100 µM (inactive) | > 100 µM (inactive) | > 10 µM (inactive) | > 31.6 µM (inactive) | > 100 µM (inactive) |  |  |  |  | 
19 | N#CC(=C1C=CC(=NO)C=C1)c1ccc(Cl)cc1 | 7.5 µM (inactive) | 22.2 µM (inactive) | 18.7 µM (inactive) | 67.3 µM (inactive) | 11.9 µM (inactive) | 15.1 µM (inactive) | 21.8 µM (inactive) |  | 17.1 µM (inactive) |  | 15.3 µM (inactive) | 17.5 µM (inactive) | 23.7 µM (inactive) | 2.6 µM (inactive) |  |  |  | 
20 | c1cc(N(CCn2cccn2)CCn2cccn2)cc(N(CCn2cccn2)CCn2cccn2)c1 | > 100 µM (inactive) | > 100 µM (inactive) | > 100 µM (inactive) | > 100 µM (inactive) | > 100 µM (inactive) | > 100 µM (inactive) |  |  |  | > 100 µM (inactive) | > 100 µM (inactive) | > 100 µM (inactive) |  | > 100 µM (inactive) |  |  |  | 
21 | O=C1NC2(CCCC2)C2CCCCC12O (configuration not stated) | > 100 µM (inactive) | > 100 µM (inactive) | > 100 µM (inactive) | > 100 µM (inactive) | > 100 µM (inactive) | > 100 µM (inactive) | > 100 µM (inactive) |  | > 100 µM (inactive) | > 100 µM (inactive) | > 100 µM (inactive) |  | > 100 µM (inactive) | > 100 µM (inactive) |  |  |  | 
